According to patent publication US9662329B2, “Use of survivin antagonists in polyomavirus-related disease” (University of Pittsburgh—Of the Commonwealth System of …, priority 2012, dated 2017):
Read-outs that look alike come from different tables or passages of the source.

How the values were obtained:
[1] = tested on: MCV-negative UISO and MCC26; experiment: Cell-Titer Glo growth curves for YM155; type: cell-based, human; conditions: 48 h
Source text: (§1) Seven Merkel cell carcinoma cell lines: MKL-1, MKL-2, MS-1, UISO, MCC13, MCC26 and WaGa (kind gift of Jurgen Becker (Houben et al., Merkel cell polyomavirus-infected Merkel cell carcinoma cells require expression of viral T antigens. J Virol 84, 7064 (July, 2010); Ronan et al., Merkel cell carcinoma: in vitro and in vivo characteristics of a new cell line. J Am Acad Dermatol 29, 715 (November, 1993); Rosen et al., Establishment and characterization of a neuroendocrine skin carcinoma cell line. Lab Invest 56, 302 (March, 1987)); NCI-H69 small cell lung cancer cell line (ATCC); 293 human embryonic kidney cells (ATCC); U2OS osteosarcoma cell line (kind gift of Ole Gjoerup); BJhTERT immortalized foreskin fibroblast cell line (kind gift of Ole Gjoerup); and BJ primary foreskin fibroblasts (ATCC) were used to screen and evaluate the small molecules examined in this study (Houben et al., J Virol 84, 7064 (July, 2010); Ronan et al., J Am Acad Dermatol 29, 715 (November, 1993); Rosen et al., Lab Invest 56, 302 (March, 1987)). […]
(§2) Serial drug dilutions from 10^−4 M to 10^−9 M were used on MCC and non-MCC cell lines. […] Cell viability was then measured using Cell Titer Glo (Promega) kit following manufacturer's instructions as described previously. […] EC50 doses for the drugs were calculated using a four parameter logistic equation (GraphPad Prism).

[2] = tested on: MCV-negative MCC13, BJ and BJhTERT cells; experiment: Cell-Titer Glo growth curves for YM155; type: cell-based, human; conditions: 48 h
Source text: as §1, §2

MKL-1 cells = experiment: Trypan blue dye exclusion assay; conditions: for viability at 0.1 µM: Homo sapiens
Procedure: Cells were equally seeded and treated with YM155 for 48 hours. To count blue stained dead cells, cells were treated with Accutase (Millipore), collected, resuspended in PBS, mixed with equal volume of Trypan blue (Lonza, 0.4%) and counted using a hemocytometer under the microscope. The counts were done in triplicate and the experiment was repeated three times.
MKL-1 cells were co-stained with CFDA (green, live) and PI (red, dead). In FIG. 4D, column graphs represent mean and range quantitations (using ImageJ) of % CFDA positive and % PI positive cells.

[3] = tested on: survivin protein expression in MKL-1 cells; experiment: Immunoblotting for survivin; type: cell-based, human; conditions: after 12 h treatment
Procedure: Cells were lysed in buffer (RIPA or 10 mM Tris-HCl pH 8.0, 0.6% SDS) containing protease inhibitor cocktail (Roche). Lysates were electrophoresed in 10% SDS-PAGE, transferred to nitrocellulose membrane (Amersham) and reacted with specific antibodies (CM2B4, (1:5000 dilution) (Shuda et al., Human Merkel cell polyomavirus infection I. MCV T antigen expression in Merkel cell carcinoma, lymphoid tissues and lymphoid tumors. Int J Cancer 125, 1243 (Sep. 15, 2009)), cleaved PARP, cleaved caspase3, survivin, XIAP, p53, Bcl-2, Bax (1:1000 dilution, Cell Signalling Technologies), E2F1, cyclin E (1:1000 dilution, Santa Cruz Biotechnology), LC3 (1:1000 dilution, Novus Biologicals) or α-tubulin (1:5000 dilution, Sigma)) overnight at 4° C., followed by anti-mouse (1:5000 dilution, Amersham) or anti-rabbit IgG-HRP conjugates (1:3000 dilution, Cell signaling) for 1 hour at room temperature. Peroxidase activity was detected using Western Lightning plus-ECL reagent (Perkin Elmer). For quantitative immunoblotting, Odyssey Infrared Imaging system (LICOR) was used with IRDye 800-conjugated secondary antibodies (1:5000 dilution, Rockland Immuno chemicals).

[4] = tested on: MCV-positive MCC cell lines (MKL-1, MKL-2, MS-1 and WaGa); experiment: Cell-Titer Glo growth inhibition by YM155; type: cell-based, human; conditions: 48 h
Source text: as §1, §2

**Q.** Which results are given for `COCCn1c2c([n+](Cc3cnccn3)c1C)C(=O)c1ccccc1C2=O.[Br-]` [YM155, 1-(2-methoxyethyl)-2-methyl-4,9-dioxo-3-(pyrazin-2-ylmethyl)-4,9-dihydro-1H-naphtho[2,3-d]imidazol-3-ium bromide]?
**A.** sensitivity to YM155, dose-dependent growth curves [1]: intermediate sensitivity; sensitivity to YM155, dose-dependent growth curves [2]: relative resistance; cell killing, trypan blue vital dye exclusion (MKL-1 cells; 48 h, MKL-1): dose-dependent cell killing; viability at 0.1 µM (MKL-1 cells; MKL-1, read-out: cells remaining viable at 48 hours, 100 nM for 3 hours, followed by wash out): 51%; viability at 0.1 µM (MKL-1 cells; MKL-1, read-out: cells remaining viable at 48 hours, 100 nM for 6 hours, followed by wash out): 3%; viability at 0.1 µM (MKL-1 cells; MKL-1, read-out: cells remaining viable at 48 hours, 100 nM for 12 hours, followed by wash out): 1.8%; survivin protein expression [3]: dose-dependent decrease; sensitivity to YM155, dose-dependent growth curves ([4]; MKL-1, MKL-2, MS-1 and WaGa): sensitive; EC50 ([4]; Homo sapiens, MKL-1, range over MCV-positive MCC cell lines, Cell-Titer Glo, read-out: EC50, inhibiting MCV-positive MCC cell growth in vitro): 1.34 to 12.2 nM
